Results taken from publication PMC8943092, “Broad thermal spectrum metagenomic laccase with action for dye decolorization and fentin hydroxide treatment” (AMB Express, 2022).

Tested on: LacMeta
Conditions: pH 4.0, 20 mM sodium citrate, 37 °C; copper-loaded enzyme 0.066 µM; ABTS 0.1-10 mM

Q: How did the Km turn out when `CCn1c(=NN=c2sc3cc(S(=O)(=O)O)ccc3n2CC)sc2cc(S(=O)(=O)O)ccc21` [ABTS, 2,2′-azino-bis (3-ethylbenzothiazoline-6-sulfonic acid)] was run?
A: 4.22 ± 0.374 mM
